Earlier results as cited in US10172912B2, “Chemical induction of lactation in prepubescent non-human mammals” (priority 2009, dated 2019).

Columns and labels:
gravid horses = settings: for udder development: gravid equine mares with endophyte-infected ryegrass toxicity, thirty days before foaling
non-pregnant mares = settings: altrenogest/estradiol pessary week 1, estradiol pessary week 2 with twice daily drug

In the case of O=c1[nH]c2ccccc2n1CCCN1CCC(n2c(=O)[nH]c3cc(Cl)ccc32)CC1 [Domperidone], the “bound to plasma proteins” value (plasma proteins) is given as 91-93%, the udder development (gravid horses) is given as “increases udder development” and the lactation (gravid horses; gravid horses with endophyte-infected ryegrass toxicity, administration for at least eighteen days) is given as “increase lactation”.
For CCN1CCCC1CNC(=O)c1cc(S(N)(=O)=O)ccc1OC (centres unmarked) [sulpiride], the udder development (gravid horses) is listed as “increases udder development” and the induced lactation volume (non-pregnant mares) is listed as roughly 1 liter per mare/day.
